# Source: BigSolDB 2.1
structure (smiles),measurement,setting,value
Nc1nc2ccc(OC(F)(F)F)cc2s1,solubility (mole fraction),"in acetone, 278.15 K",0.371
same,solubility (mole fraction),"in acetone, 283.15 K",0.379
same,solubility (mole fraction),"in acetone, 288.15 K",0.387
same,solubility (mole fraction),"in acetone, 293.15 K",0.4
same,solubility (mole fraction),"in acetone, 298.15 K",0.414
same,solubility (mole fraction),"in acetone, 303.15 K",0.425
same,solubility (mole fraction),"in acetone, 308.15 K",0.437
same,solubility (mole fraction),"in acetone, 313.15 K",0.449
same,solubility (mole fraction),"in acetone, 318.15 K",0.464
same,solubility (mole fraction),"in acetone, 323.15 K",0.477
same,solubility (mole fraction),"in ethanol, 278.15 K",0.179
same,solubility (mole fraction),"in ethanol, 283.15 K",0.188
same,solubility (mole fraction),"in ethanol, 288.15 K",0.198
same,solubility (mole fraction),"in ethanol, 293.15 K",0.212
same,solubility (mole fraction),"in ethanol, 298.15 K",0.223
same,solubility (mole fraction),"in ethanol, 303.15 K",0.236
same,solubility (mole fraction),"in ethanol, 308.15 K",0.255
same,solubility (mole fraction),"in ethanol, 313.15 K",0.273
same,solubility (mole fraction),"in ethanol, 318.15 K",0.294
same,solubility (mole fraction),"in ethanol, 323.15 K",0.308
same,solubility (mole fraction),"in n-propanol, 278.15 K",0.179
same,solubility (mole fraction),"in n-propanol, 283.15 K",0.189
same,solubility (mole fraction),"in n-propanol, 288.15 K",0.202
same,solubility (mole fraction),"in n-propanol, 293.15 K",0.215
same,solubility (mole fraction),"in n-propanol, 298.15 K",0.23
same,solubility (mole fraction),"in n-propanol, 303.15 K",0.249
same,solubility (mole fraction),"in n-propanol, 308.15 K",0.267
same,solubility (mole fraction),"in n-propanol, 313.15 K",0.287
same,solubility (mole fraction),"in n-propanol, 318.15 K",0.312
same,solubility (mole fraction),"in n-propanol, 323.15 K",0.333
